# Data taken from PMC3465774, “Plant odorants interfere with detection of sex pheromone signals by male Heliothis virescens” (Frontiers in Cellular Neuroscience, 2012).
# Biological target: T1, HR13 (Heliothis virescens, UniProt Q6A1K1)
# T1 construct: stably expressed, tetracycline-induced, in Flp-In T-REx293/Galpha15 (HEK293) cells; no Orco mentioned
# T1 sequence (Q6A1K1 1-425): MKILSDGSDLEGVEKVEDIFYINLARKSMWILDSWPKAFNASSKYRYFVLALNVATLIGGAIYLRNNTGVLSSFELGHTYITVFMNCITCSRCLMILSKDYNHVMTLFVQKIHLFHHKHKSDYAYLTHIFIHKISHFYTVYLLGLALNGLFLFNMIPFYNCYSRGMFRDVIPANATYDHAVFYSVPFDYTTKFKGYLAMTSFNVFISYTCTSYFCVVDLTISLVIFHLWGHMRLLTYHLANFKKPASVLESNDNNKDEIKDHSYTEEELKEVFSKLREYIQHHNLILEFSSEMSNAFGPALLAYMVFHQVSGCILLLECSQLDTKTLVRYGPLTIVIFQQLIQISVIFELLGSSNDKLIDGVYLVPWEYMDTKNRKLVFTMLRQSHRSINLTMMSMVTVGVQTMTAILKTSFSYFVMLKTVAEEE
# Experiment: fura-2 calcium imaging, mixture with Z11-16:Ald
# Type: cell-based
# Conditions: inhibitor of response to 1 nM Z11-16:Ald; no agonism at 100 nM; competitive or allosteric not resolved
smiles,measurement,value
C=CC(C)(O)CCC=C(C)C (stereo not shown) [linalool],"F/F0 of mixture (1, 10, 100 nM)",linalool reduced the pheromone-induced calcium response of HR13 cells in a dose-dependent manner
